According to patent US20070043084A1, “1,2-Diarylimidazoles useful as inhibitors of cox” (Astellas Pharma Inc., priority 2003, published 2007):
pIC50: −log10 of the molar value.

Legend:
[1] = system: adjuvant arthritis in rats; assay: Analgesic activity: effect on adjuvant arthritis in rats (Randall-Selitto pain threshold); type: in vivo, Lewis rats; details: dose 3.2 mg/kg; ratio of threshold pressure of treated vs non-treated arthritic rats, 2 hrs after administration; ratio of 1.5 = effective dose
COX-I = target: T1, COX-I (Homo sapiens, UniProt P23219); assay: Whole blood assay for COX-I (TXB2 production); type: cell-based; details: 1 hr at 37° C.
T1 construct: Fresh blood was collected by syringe without anticoagulants from volunteers with consent; from tissue; host or cells: fresh human whole blood from volunteers, no anticoagulant, left to clot
T1 sequence (P23219 24-599): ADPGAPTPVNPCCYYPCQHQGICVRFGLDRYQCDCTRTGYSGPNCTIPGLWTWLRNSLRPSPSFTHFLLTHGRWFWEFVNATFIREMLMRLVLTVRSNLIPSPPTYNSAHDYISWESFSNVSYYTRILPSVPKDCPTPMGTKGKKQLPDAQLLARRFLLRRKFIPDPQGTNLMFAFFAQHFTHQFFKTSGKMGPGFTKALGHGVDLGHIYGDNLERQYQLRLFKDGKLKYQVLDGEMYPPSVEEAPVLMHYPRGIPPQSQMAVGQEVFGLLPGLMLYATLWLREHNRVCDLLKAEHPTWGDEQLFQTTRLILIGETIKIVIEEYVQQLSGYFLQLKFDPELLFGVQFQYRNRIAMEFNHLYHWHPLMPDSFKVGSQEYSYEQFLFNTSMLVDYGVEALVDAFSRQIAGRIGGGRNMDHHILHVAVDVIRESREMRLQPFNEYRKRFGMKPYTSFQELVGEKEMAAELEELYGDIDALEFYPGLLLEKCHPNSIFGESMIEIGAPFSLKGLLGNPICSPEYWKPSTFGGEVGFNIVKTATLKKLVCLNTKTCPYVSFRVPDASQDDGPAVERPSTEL
Method: [B] Inhibiting Activity Against COX-I and COX-II (Whole Blood Assay): (i) Test Method: Whole Blood Assay for COX-I
Fresh blood was collected by syringe without anticoagulants from volunteers with consent. The subjects had no apparent inflammatory conditions and had not taken any medication for at least 7 days prior to blood collection.
500 μl aliquots of human whole blood were immediately incubated with 2 μl of either dimethyl sulfoxide vehicle or a test compound at final concentrations for 1 hr at 37° C. to allow the blood to clot. Appropriate treatments (no incubation) were used as blanks. At the end of the incubation, 5 μl of 250 mM Indomethacin was added to stop the reaction. The blood was centrifuged at 6000×g for 5 min at 4° C. to obtain serum. A 100 μl aliquot of serum was mixed with 400 μl methanol for protein precipitation. The supernatant was obtained by centrifuging at 6000×g for 5 min at 4° C. and was assayed for TXB2 using an enzyme immunoassay kit according to the manufacturer's procedure. For a test compound, the results were expressed as percent inhibition of thromboxane B2(TXB2) production relative to control incubations containing dimethyl sulfoxide vehicle.
The data were analyzed by that a test compound at the indicated concentrations was changed log value and was applied simple linear regression. IC50 value was calculated by least squares method.

COX-II = target: T2, COX-II (Homo sapiens, UniProt P35354); assay: Whole blood assay for COX-II (LPS-induced PGE2 production); type: cell-based; details: lipopolysaccharide 24 hrs at 37° C.
T2 construct: lipopolysaccharide for 24 hrs at 37° C. for induction of COX-II; from tissue; host or cells: fresh heparinized human whole blood from volunteers, stimulated with LPS for 24 hrs
T2 sequence (P35354 18-604): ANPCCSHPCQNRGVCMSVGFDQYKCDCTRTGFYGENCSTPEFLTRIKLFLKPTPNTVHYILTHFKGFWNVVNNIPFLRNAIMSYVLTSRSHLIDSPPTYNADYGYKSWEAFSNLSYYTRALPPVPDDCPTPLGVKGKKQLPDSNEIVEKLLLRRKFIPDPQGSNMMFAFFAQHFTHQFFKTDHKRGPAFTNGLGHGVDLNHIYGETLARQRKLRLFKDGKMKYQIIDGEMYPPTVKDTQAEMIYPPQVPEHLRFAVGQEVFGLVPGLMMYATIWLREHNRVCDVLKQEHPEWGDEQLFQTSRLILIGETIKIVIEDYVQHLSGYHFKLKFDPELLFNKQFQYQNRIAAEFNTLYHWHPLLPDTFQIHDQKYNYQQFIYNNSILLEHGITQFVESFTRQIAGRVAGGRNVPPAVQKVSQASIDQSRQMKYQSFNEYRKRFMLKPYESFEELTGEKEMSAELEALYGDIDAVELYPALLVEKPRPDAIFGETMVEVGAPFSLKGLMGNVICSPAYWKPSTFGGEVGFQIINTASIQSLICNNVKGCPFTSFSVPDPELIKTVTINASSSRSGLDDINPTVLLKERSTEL
Method: Whole Blood Assay for COX-II
Fresh blood was collected in heparinized tubes by syringe from volunteers with consent. The subjects had no apparent inflammatory conditions and had not taken any medication for at least 7 days prior to blood collection.
500 μl aliquots of human whole blood were incubated with either 2 μl dimethyl sulfoxide vehicle or 2 μl of a test compound at final concentrations for 15 min at 37° C. This was followed by incubation of the blood with […] of 5 mg/ml lipopolysaccharide for 24 hrs at 37° C. for induction of COX-II. Appropriate PBS treatments (no LPS) were used as blanks. At the end of the incubation, the blood was centrifuged at 6000×g for 5 min at 4° C. to obtain plasma. A 100 μl aliquot of plasma was mixed with 400 μl methanol for protein precipitation. The supernatant was obtained by centrifuging at 6000×g for 5 min at 4° C. and was assayed for prostaglandin E2 (PGE2) using a radioimmunoassay kit after conversion of PGE2 to its methyl oximate derivative according to the manufacturer's procedure.
For a test compound, the results were expressed as percent inhibition of […] production relative to control incubations containing dimethyl sulfoxide vehicle. The data were analyzed by that a test compound at the indicated concentrations was changed log value and was applied simple linear regression. IC50 value was calculated by least squares method.

| SMILES | The coefficient of analgesic [1] | pIC50 (COX-I) | pIC50 (COX-II) | melting point [°C] |
| --- | --- | --- | --- | --- |
| COc1ccc(-c2nc(C(F)F)cn2-c2ccc(C#N)cc2)cn1 [Example 40, 1-(4-Cyanophenyl)-4-difluoromethyl-2-(2-methoxy-5-pyridinyl)-1H-imidazole] | >1.5 | > 8.00 | ≤ 7.00 | 160 to 161 |
| COc1ccc(-c2nc(C#N)cn2-c2ccc(OC)cc2)cc1.Cl [Example 11, 4-Cyano-1-(4-methoxyphenyl)-2-(4-methoxyphenyl)-1H-imidazole hydrochloride] | >1.5 | > 8.00 | ≤ 7.00 | 142 to 143 |
| COc1ccc(-c2nc(C(F)(F)F)cn2-c2ccc(C#N)cc2)cc1 [Example 24, 1-(4-Cyanophenyl)-2-(4-methoxyphenyl)-4-trifluoromethyl-1H-imidazole] | >1.5 | > 8.00 | ≤ 7.00 | 146 to 148 |
